Measurements: PubChem BioAssay (NCI)
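Following 48 hours of exposure in 96-well plates, responses at five concentrations were used to interpolate endpoints linearly. TGI marks complete inhibition of growth.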

Columns and labels:
Assay in all cases: DTP human tumour cell line panel, 48 h
[1] = system: UACC-62 melanoma
[2] = system: RPMI-8226 leukemia
[3] = system: ACHN renal
[4] = system: UACC-257 melanoma
[5] = system: MOLT-4 leukemia
[6] = system: NCI/ADR-RES ovarian
[7] = system: HOP-62 NSCLC
[8] = system: RXF 393 renal
[9] = system: SN12C renal
[10] = system: SF-295 CNS
[11] = system: MDA-MB-231 breast
[12] = system: SK-MEL-2 melanoma
[13] = system: A498 renal
[14] = system: 786-0 renal
[15] = system: SK-MEL-5 melanoma
[16] = system: COLO 205 colon
[17] = system: M14 melanoma
[18] = system: SNB-75 CNS
[19] = system: OVCAR-3 ovarian
[20] = system: NCI-H522 lung
[21] = system: NCI-H23 lung
[22] = system: LOX IMVI melanoma
[23] = system: OVCAR-4 ovarian
[24] = system: EKVX NSCLC
[25] = system: SK-OV-3 ovarian
[26] = system: BT-549 breast
[27] = system: OVCAR-8 ovarian
[28] = system: HCC-2998 colon
[29] = system: IGROV1 ovarian
[30] = system: HCT-15 colon
[31] = system: TK-10 renal
[32] = system: SK-MEL-28 melanoma
[33] = system: MCF7 breast
[34] = system: CCRF-CEM leukemia
[35] = system: SF-268 CNS
[36] = system: HCT-116 colon
[37] = system: MALME-3M melanoma
[38] = system: MDA-N
[39] = system: SNB-19 CNS
[40] = system: T-47D breast
[41] = system: A549 NSCLC
[42] = system: HS 578T breast
[43] = system: HOP-92 NSCLC
[44] = system: U251 CNS
[45] = system: UO-31 renal
[46] = system: DU-145 prostate
[47] = system: PC-3 prostate
[48] = system: OVCAR-5 ovarian
[49] = system: CAKI-1 renal
[50] = system: SW-620 colon
[51] = system: MDA-MB-435
[52] = system: NCI-H460 lung
[53] = system: KM12 colon
[54] = system: SR leukemia
[55] = system: K-562 leukemia

CCCCCCCC/C=C(\Br)C(O)C(Br)Br (stereo not given)
TGI [1]: 41.6 µM
TGI [2]: > 100 µM
TGI [3]: 51.9 µM
TGI [4]: 76.1 µM
TGI [5]: > 100 µM
TGI [6]: 57.2 µM
TGI [7]: 47.6 µM
TGI [8]: 37.8 µM
TGI [9]: 36.6 µM
TGI [10]: 41.5 µM
TGI [11]: > 100 µM
TGI [12]: 63.7 µM
TGI [13]: 68.1 µM
TGI [14]: 39.7 µM
TGI [15]: 34 µM
TGI [16]: 41 µM
TGI [17]: 48.5 µM
TGI [18]: > 100 µM
TGI [19]: 34.8 µM
TGI [20]: 38.4 µM
TGI [21]: 47.7 µM
TGI [22]: 41.2 µM
TGI [23]: 85.9 µM
TGI [24]: 92.9 µM
TGI [25]: 90.6 µM
TGI [26]: 44.8 µM
TGI [27]: 49.5 µM
TGI [28]: 48 µM
TGI [29]: 59.1 µM
TGI [30]: 47.2 µM
TGI [31]: > 100 µM
TGI [32]: > 100 µM
TGI [33]: 98.3 µM
TGI [34]: 35.5 µM
TGI [35]: 53.1 µM
TGI [36]: > 100 µM
TGI [37]: 43 µM
TGI [38]: 54.1 µM
TGI [39]: > 100 µM
TGI [40]: > 100 µM
TGI [41]: > 100 µM
TGI [42]: 74.7 µM
TGI [43]: 42.9 µM
TGI [44]: > 100 µM
TGI [45]: 38.8 µM
TGI [46]: > 100 µM
TGI [47]: > 100 µM
TGI [48]: 43.6 µM
TGI [49]: 63.7 µM
TGI [50]: 34.2 µM
TGI [51]: 59.1 µM
TGI [52]: 86.8 µM
TGI [53]: 59.6 µM
TGI [54]: > 100 µM
TGI [55]: > 100 µM
